According to ChEMBL document CHEMBL3351812, “Discovery and SAR of a novel series of metabotropic glutamate receptor 5 positive allosteric modulators with high ligand efficiency” (Bioorg Med Chem Lett, 2014):
One block for each compound: values may come before it. The source made the active and inactive calls. The rule behind the calls is not given here.

Assays:
[1] = target: Metabotropic glutamate receptor 5 (Rattus norvegicus) (UniProt P31424); experiment: Positive allosteric modulation of rat mGlu5 receptor expressed in HEK293 cells relative to glutamate; type: cell-based; parameters: concentration or dose not given beside the values
[2] = target: Metabotropic glutamate receptor 5 (Rattus norvegicus, UniProt P31424); experiment: (§1) Positive allosteric modulation of rat mGlu5 receptor expressed in HEK293 cells; type: cell-based
[3] = (§2) Fraction unbound in rat plasma; type: ADME, cell-free
[4] = (§3) Fraction unbound in human plasma; type: ADME, cell-free
Cytochrome P450 1A2 = target: T1, Cytochrome P450 1A2 (Homo sapiens, UniProt P05177); experiment: Inhibition of CYP1A2 (unknown origin); type: ADME
T1 sequence (P05177 whole entry): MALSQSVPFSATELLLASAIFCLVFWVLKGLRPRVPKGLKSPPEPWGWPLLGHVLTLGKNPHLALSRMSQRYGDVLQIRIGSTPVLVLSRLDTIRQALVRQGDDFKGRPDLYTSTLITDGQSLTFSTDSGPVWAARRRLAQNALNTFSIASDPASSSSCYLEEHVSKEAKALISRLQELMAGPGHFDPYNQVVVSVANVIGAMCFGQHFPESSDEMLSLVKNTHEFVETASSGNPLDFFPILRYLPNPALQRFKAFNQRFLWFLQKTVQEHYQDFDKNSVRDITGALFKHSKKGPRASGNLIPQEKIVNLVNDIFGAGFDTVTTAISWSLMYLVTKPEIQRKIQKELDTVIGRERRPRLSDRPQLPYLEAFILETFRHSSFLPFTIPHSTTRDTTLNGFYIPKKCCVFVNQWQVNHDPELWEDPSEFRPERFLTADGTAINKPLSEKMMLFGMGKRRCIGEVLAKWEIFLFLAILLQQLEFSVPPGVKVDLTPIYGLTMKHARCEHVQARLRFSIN

Plasma [5] = experiment: as §2; type: ADME, cell-free
Plasma [6] = experiment: as §3; type: ADME, cell-free
[7] = target: Metabotropic glutamate receptor 5 (Rattus norvegicus) (UniProt P31424); experiment: as §1; type: cell-based
[8] = target: Metabotropic glutamate receptor 8 (Rattus norvegicus) (UniProt P70579); experiment: Positive allosteric modulation of rat mGlu8 receptor
[9] = target: Metabotropic glutamate receptor 3 (Rattus norvegicus) (UniProt P31422); experiment: Positive allosteric modulation of rat mGlu3 receptor
[10] = target: Metabotropic glutamate receptor 1 (Rattus norvegicus) (UniProt P23385); experiment: Positive allosteric modulation of rat mGlu1 receptor
[11] = target: Metabotropic glutamate receptor 7 (Rattus norvegicus) (UniProt P35400); experiment: Positive allosteric modulation of rat mGlu7 receptor
[12] = target: Metabotropic glutamate receptor 6 (Homo sapiens) (UniProt O15303); experiment: Positive allosteric modulation of human mGlu6 receptor
[13] = target: Metabotropic glutamate receptor 3 (Homo sapiens) (UniProt Q14832); experiment: Positive allosteric modulation of human mGlu3 receptor
[14] = target: Metabotropic glutamate receptor 6 (Rattus norvegicus) (UniProt P35349); experiment: Positive allosteric modulation of rat mGlu6 receptor
Plasma [15] = experiment: Stability in rat plasma at 37 degC after 4 hrs; type: ADME, cell-free
[16] = target: Metabotropic glutamate receptor 8 (Homo sapiens) (UniProt O00222); experiment: Positive allosteric modulation of human mGlu8 receptor
Cytochrome P450 3A4 = Cytochrome P450 3A4 (Homo sapiens, UniProt P08684); experiment: Inhibition of CYP3A4 (unknown origin); type: ADME
[17] = target: Metabotropic glutamate receptor 7 (Homo sapiens) (UniProt Q14831); experiment: Positive allosteric modulation of human mGlu7 receptor
Plasma [18] = experiment: Stability in human plasma at 37 degC after 4 hrs; type: ADME, cell-free
[19] = target: Metabotropic glutamate receptor 1 (Homo sapiens) (UniProt Q13255); experiment: Positive allosteric modulation of human mGlu1 receptor
Cytochrome P450 2D6 = Cytochrome P450 2D6 (Homo sapiens, UniProt P10635); experiment: Inhibition of CYP2D6 (unknown origin); type: ADME
Cytochrome P450 2C9 = Cytochrome P450 2C9 (Homo sapiens, UniProt P11712); experiment: Inhibition of CYP2C9 (unknown origin); type: ADME
[20] = target: Metabotropic glutamate receptor 2 (Homo sapiens) (UniProt Q14416); experiment: Positive allosteric modulation of human mGlu2 receptor
[21] = target: Metabotropic glutamate receptor 2 (Rattus norvegicus) (UniProt P31421); experiment: Positive allosteric modulation of rat mGlu2 receptor

Chain of Metabotropic glutamate receptor 5 (Rattus norvegicus) (P31424 21-1203 limits assumed): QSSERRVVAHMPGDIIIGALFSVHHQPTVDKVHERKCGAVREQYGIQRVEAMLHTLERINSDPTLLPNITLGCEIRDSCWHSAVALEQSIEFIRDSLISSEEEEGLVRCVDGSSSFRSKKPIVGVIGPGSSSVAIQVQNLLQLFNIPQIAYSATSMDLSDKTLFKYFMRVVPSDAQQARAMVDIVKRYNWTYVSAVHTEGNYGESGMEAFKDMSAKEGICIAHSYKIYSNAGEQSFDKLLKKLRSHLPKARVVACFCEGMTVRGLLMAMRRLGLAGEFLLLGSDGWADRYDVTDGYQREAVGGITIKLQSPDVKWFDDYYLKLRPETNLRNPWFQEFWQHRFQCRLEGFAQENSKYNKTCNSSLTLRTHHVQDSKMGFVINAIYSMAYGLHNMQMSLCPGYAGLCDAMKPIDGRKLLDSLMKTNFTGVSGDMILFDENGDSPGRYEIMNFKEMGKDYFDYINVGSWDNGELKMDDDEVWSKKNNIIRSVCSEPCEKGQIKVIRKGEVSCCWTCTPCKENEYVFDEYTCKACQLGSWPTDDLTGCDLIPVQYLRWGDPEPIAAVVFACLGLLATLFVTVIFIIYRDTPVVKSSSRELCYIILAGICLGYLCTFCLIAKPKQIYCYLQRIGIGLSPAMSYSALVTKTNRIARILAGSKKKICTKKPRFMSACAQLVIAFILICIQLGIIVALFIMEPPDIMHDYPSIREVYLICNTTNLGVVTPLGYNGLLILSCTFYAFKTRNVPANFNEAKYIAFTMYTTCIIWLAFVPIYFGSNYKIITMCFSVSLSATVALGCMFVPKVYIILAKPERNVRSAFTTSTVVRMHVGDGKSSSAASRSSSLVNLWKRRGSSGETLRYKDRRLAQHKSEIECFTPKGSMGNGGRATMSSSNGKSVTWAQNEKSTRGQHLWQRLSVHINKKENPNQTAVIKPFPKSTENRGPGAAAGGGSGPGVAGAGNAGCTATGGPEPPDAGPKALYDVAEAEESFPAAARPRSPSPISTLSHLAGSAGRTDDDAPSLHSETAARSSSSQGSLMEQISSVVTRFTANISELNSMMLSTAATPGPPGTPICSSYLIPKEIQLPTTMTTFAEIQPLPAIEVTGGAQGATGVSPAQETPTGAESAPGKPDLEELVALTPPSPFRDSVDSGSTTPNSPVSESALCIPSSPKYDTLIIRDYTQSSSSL
Chain of Metabotropic glutamate receptor 5 (P31424 whole entry): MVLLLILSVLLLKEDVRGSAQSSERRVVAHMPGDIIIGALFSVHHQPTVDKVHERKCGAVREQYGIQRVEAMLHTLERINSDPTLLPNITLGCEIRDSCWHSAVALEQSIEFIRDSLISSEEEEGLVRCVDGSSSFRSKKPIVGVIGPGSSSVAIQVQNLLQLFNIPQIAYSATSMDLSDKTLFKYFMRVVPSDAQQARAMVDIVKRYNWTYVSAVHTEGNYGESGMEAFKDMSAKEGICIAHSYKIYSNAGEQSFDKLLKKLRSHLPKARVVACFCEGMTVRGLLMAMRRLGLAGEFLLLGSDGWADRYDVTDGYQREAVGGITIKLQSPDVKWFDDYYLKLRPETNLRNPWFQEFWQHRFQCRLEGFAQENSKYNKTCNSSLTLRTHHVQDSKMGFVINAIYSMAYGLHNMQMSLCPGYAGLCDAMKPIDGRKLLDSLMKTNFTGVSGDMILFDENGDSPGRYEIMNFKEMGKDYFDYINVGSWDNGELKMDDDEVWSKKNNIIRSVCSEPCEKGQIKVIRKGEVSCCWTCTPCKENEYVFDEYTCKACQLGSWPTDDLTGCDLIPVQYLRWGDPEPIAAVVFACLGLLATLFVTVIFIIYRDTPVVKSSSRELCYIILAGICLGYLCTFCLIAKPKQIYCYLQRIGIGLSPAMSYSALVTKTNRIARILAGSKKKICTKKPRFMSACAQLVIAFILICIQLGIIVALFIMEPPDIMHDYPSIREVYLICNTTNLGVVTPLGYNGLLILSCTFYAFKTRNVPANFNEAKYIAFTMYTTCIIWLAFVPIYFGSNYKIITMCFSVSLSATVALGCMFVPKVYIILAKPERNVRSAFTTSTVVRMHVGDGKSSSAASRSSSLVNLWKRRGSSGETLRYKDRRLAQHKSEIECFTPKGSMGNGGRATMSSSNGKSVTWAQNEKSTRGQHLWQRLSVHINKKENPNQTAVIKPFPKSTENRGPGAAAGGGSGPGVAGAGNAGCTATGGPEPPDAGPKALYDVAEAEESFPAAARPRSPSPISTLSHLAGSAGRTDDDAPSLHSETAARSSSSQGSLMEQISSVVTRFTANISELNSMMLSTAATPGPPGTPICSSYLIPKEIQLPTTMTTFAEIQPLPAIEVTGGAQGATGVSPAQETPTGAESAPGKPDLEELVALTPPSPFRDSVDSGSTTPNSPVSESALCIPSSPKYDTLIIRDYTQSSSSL
Chain of Metabotropic glutamate receptor 7 (Rattus norvegicus) (P35400 whole entry): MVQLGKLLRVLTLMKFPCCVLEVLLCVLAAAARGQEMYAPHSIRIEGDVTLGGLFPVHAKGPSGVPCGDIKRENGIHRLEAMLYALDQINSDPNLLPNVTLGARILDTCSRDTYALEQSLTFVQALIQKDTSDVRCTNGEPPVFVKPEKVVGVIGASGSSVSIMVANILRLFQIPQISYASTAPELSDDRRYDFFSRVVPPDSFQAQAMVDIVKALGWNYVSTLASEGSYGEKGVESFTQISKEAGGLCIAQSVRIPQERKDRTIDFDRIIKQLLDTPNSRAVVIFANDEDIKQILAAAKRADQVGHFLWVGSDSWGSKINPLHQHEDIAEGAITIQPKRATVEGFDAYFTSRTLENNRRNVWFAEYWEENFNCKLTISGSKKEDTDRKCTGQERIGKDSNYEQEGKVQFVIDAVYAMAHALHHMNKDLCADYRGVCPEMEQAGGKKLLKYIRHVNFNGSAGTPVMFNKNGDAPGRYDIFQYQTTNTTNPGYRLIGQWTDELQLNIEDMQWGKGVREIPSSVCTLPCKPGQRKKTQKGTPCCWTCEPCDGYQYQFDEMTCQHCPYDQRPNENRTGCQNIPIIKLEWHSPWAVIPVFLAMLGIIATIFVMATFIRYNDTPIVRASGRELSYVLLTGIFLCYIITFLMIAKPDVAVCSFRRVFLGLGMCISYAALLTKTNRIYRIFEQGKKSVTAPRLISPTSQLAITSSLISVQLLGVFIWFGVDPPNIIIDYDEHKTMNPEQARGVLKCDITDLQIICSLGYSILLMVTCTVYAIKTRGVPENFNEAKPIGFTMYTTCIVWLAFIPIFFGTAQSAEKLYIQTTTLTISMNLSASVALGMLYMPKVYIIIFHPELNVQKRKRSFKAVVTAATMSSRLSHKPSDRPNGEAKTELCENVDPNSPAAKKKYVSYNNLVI
Chain of Cytochrome P450 2D6 (P10635 whole entry): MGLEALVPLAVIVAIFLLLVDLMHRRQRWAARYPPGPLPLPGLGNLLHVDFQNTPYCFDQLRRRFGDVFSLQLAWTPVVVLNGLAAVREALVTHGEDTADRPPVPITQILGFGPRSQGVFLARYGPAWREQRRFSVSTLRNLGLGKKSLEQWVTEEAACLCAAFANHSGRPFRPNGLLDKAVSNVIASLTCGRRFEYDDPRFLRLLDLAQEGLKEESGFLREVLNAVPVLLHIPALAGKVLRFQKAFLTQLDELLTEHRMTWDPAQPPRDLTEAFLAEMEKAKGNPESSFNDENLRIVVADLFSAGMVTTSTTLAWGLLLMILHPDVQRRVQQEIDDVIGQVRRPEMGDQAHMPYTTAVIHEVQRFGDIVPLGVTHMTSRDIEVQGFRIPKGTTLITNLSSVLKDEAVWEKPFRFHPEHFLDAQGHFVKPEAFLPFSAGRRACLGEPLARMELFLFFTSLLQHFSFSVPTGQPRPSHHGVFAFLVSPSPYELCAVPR
Chain of Metabotropic glutamate receptor 3 (Rattus norvegicus) (P31422 23-879 limits assumed): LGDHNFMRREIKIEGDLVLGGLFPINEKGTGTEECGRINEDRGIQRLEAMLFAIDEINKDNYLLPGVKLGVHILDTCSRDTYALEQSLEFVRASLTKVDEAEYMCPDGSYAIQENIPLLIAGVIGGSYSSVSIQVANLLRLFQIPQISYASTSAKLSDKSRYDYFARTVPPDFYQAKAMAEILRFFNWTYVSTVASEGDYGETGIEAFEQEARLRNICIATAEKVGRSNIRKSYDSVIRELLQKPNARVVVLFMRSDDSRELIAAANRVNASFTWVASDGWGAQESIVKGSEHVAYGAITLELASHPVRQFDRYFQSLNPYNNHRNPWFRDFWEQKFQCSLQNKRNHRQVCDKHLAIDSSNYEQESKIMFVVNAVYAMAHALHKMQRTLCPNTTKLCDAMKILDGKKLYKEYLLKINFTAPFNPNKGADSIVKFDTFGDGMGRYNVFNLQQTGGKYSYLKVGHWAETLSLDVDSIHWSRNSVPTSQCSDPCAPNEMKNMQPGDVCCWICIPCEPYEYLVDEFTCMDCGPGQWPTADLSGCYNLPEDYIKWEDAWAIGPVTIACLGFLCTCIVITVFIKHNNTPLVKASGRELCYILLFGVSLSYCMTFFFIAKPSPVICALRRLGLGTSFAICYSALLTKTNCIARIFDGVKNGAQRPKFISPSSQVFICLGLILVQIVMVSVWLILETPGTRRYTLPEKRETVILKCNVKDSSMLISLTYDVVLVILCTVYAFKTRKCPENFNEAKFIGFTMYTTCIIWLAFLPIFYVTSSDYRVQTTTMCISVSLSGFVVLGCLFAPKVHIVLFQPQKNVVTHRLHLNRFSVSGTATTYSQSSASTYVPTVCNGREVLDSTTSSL
Chain of Metabotropic glutamate receptor 7 (Homo sapiens) (Q14831 whole entry): as the sequence (P35400 whole entry) above, with G5R, V27A, H454N, T488S, S520A, N578D counted along it

SMILES: COc1ccccc1C1CCn2nc(COc3ccccc3)cc2C1=O (stereo not drawn)
Activity [1]: 68%
EC50 [2]: 43 nM

SMILES: CC1(C)CCn2nc(COc3ccccc3)cc2C1O (stereo not drawn)
Activity [1]: 60%
EC50 [2]: 4410 nM

SMILES: COc1ccccc1C1(C)CCn2nc(COc3ccccc3)cc2C1=O (stereo not drawn)
Activity [1]: 52%
EC50 [2]: 654 nM

SMILES: CCCCC1(O)CCCn2nc(COc3ccccc3)cc21 (stereo not drawn)
Activity [1]: 44%
EC50 [2]: 1820 nM

SMILES: O=C1c2cc(COc3ccccc3)nn2CCC12CCCC2
Activity [1]: 60%
EC50 [2]: 48 nM

SMILES: c1ccc(NC2CCCn3nc(COc4ccccc4)cc32)cc1 (stereo not drawn)
Activity [1]: 62%
EC50 [2]: 269 nM

SMILES: O=C1c2cc(COc3ccccc3)nn2CCC1Cc1ccccc1 (stereo not drawn)
Activity [1]: 73%
EC50 [2]: 124 nM

Activity [1]: 48%
EC50 [2]: 618 nM
SMILES: c1ccc(CNC2CCCn3nc(OCc4ccccc4)cc32)cc1 (stereo not drawn)

SMILES: c1ccc(COC2CCCn3nc(COc4ccccc4)cc32)cc1 (stereo not drawn)
Activity [1]: 70%
EC50 [2]: 989 nM

SMILES: COC1c2cc(COc3ccccc3)nn2CCC1(C)C (stereo not drawn)
Activity [1]: 75%
EC50 [2]: 796 nM

SMILES: O=C1c2cc(COc3ccccc3)nn2CCC1c1ccc(F)cc1 (stereo not drawn)
fraction unbound [3]: 0.032
Activity [1]: 66%
fraction unbound [4]: 0.008
EC50 [2]: 35 nM

SMILES: CC1(C)CCn2nc(COc3ccccc3)cc2C1=O
IC50 (Cytochrome P450 1A2): 7300 nM
fraction unbound [3]: 0.07
Activity [1]: 70%
fraction unbound [4]: 0.1
EC50 [2]: 86 nM

SMILES: CN(Cc1ccccc1)C1CCCn2nc(COc3ccccc3)cc21 (stereo not drawn)
Activity [1]: 71%
EC50 [2]: 686 nM

SMILES: CC1(C)CCn2nc(COc3ccccc3)cc2C1NCc1ccccc1 (stereo not drawn)
Activity [1]: 65%
EC50 [2]: 3620 nM

SMILES: COC1CCCn2nc(COc3ccccc3)cc21 (stereo not drawn)
Activity [1]: 43%
EC50 [2]: 2910 nM

Activity [1]: 48%
EC50 [2]: 95 nM
SMILES: O=C1c2cc(OCc3ccccc3)nn2CCC1c1ccc(F)cc1 (stereo not drawn)

SMILES: NC1CCCn2nc(COc3ccccc3)cc21 (stereo not drawn)
Activity [1]: 45%
EC50 [2]: > 10000 nM

SMILES: c1ccc(OCc2cc3n(n2)CCCC3NCc2cccnc2)cc1 (stereo not drawn)
Activity [1]: 59%
EC50 [2]: 2840 nM

SMILES: CC(C)N1CCN(C2CCCn3nc(COc4ccccc4)cc32)CC1 (stereo not drawn)
Activity [1]: 71%
EC50 [2]: 870 nM

SMILES: CC1(c2ccc(F)cc2)CCn2nc(COc3ccccc3)cc2C1=O (stereo not drawn)
Activity [1]: 58%
EC50 [2]: 228 nM

SMILES: c1ccc(OCc2cc3n(n2)CCCC3NC2CC2)cc1 (stereo not drawn)
Activity [1]: 50%
EC50 [2]: 1800 nM

SMILES: CC1CCn2nc(COc3ccccc3)cc2C1=O (stereo not drawn)
Activity [1]: 76%
EC50 [2]: 285 nM

SMILES: CC1(C)CCn2nc(COc3ccccc3)cc2C1OCc1ccccc1 (stereo not drawn)
Activity [1]: 64%
EC50 [2]: 2320 nM

SMILES: c1ccc(CNC2CCCn3nc(COc4ccccc4)cc32)cc1 (stereo not drawn)
Fu (Plasma [5]): 0.03%
Activity [1]: 74%
Fu (Plasma [6]): 0.02%
EC50 [2]: 632 nM

SMILES: OC1CCCn2nc(COc3ccccc3)cc21 (stereo not drawn)
Activity [1]: 47%
EC50 [2]: 2010 nM

SMILES: OC1(c2ccccc2)CCCn2nc(COc3ccccc3)cc21 (stereo not drawn)
Activity [1]: 49%
EC50 [2]: 1200 nM

SMILES: FC1(F)CCCn2nc(COc3ccccc3)cc21
Activity [1]: 52%
EC50 [2]: 625 nM

SMILES: Clc1ccc(CNC2CCCn3nc(COc4ccccc4)cc32)cc1 (stereo not drawn)
Activity [1]: 65%
EC50 [2]: 637 nM

SMILES: Fc1cccc(CNC2CCCn3nc(COc4ccccc4)cc32)c1 (stereo not drawn)
Activity [1]: 75%
EC50 [2]: 275 nM

SMILES: O=C1c2cc(COc3ccccc3)nn2CCC1(Cc1ccccc1)Cc1ccccc1
Activity [1]: 37%
EC50 [2]: > 10000 nM

SMILES: CC1CCn2nc(COc3ccccc3)cc2C1(C)O (stereo not drawn)
Activity [1]: 39%
EC50 [2]: 1680 nM

SMILES: O=C1CCCn2nc(OCc3ccccc3)cc21
Activity [7]: inactive

SMILES: c1ccc(OCc2cc3n(n2)CCCC3N2CCOCC2)cc1 (stereo not drawn)
Activity [1]: 52%
EC50 [2]: 2360 nM

Activity [1]: 56%
EC50 [2]: 228 nM
SMILES: CC1(C)CCn2nc(OCc3ccccc3)cc2C1=O

SMILES: O=C1CCCn2nc(COc3ccccc3)cc21
Activity [8]: > 10 µM
Activity [9]: > 10 µM
Activity [10]: > 10 µM
Activity [11]: > 10 µM
Activity [12]: > 10 µM
IC50 (Cytochrome P450 1A2): 6200 nM
fraction unbound [3]: 0.21
Activity [13]: > 10 µM
Activity [14]: > 10 µM
Stability (Plasma [15]): Stable
Activity [16]: > 10 µM
inhibition (INH) (Cytochrome P450 3A4): Active
Activity [17]: > 10 µM
Stability (Plasma [18]): Stable
Activity [1]: 66%
Activity [19]: > 10 µM
fraction unbound [4]: 0.23
inhibition (INH) (Cytochrome P450 2D6): Active
inhibition (INH) (Cytochrome P450 2C9): Active
EC50 [2]: 129 nM
Activity [20]: > 10 µM
Activity [21]: > 10 µM

Activity [1]: 65%
EC50 [2]: 441 nM
SMILES: O=C1CCCc2nc(COc3ccccc3)sc21

SMILES: c1ccc(OCc2cc3n(n2)CCCC3OCC2CC2)cc1 (stereo not drawn)
Activity [1]: 43%
EC50 [2]: 2520 nM

SMILES: Fc1ccc(CNC2CCCn3nc(COc4ccccc4)cc32)cc1 (stereo not drawn)
Activity [1]: 69%
EC50 [2]: 316 nM

SMILES: c1ccc(OCc2cc3n(n2)CCCC3NCc2ccncc2)cc1 (stereo not drawn)
Activity [1]: 68%
EC50 [2]: 2570 nM

SMILES: OC1(C(F)(F)F)CCCn2nc(COc3ccccc3)cc21 (stereo not drawn)
Activity [1]: 54%
EC50 [2]: 3780 nM

SMILES: COc1ccc(CNC2CCCn3nc(COc4ccccc4)cc32)cc1 (stereo not drawn)
Activity [1]: 60%
EC50 [2]: 290 nM
